One experiment has as its target MNK2a (Homo sapiens (Human), UniProt Q9HBH9). The experiment can be described thus: MNK2a in vitro kinase assay (Assay 2), ADP-Glo. The experiment is classed as biochemical. To be noted: read-out: MNK2 IC50. A general note: In ADP-Glo the light output rises with the ADP produced.
The next experiment has as its target MNK1 (Homo sapiens (Human), UniProt Q9BUB5). The experiment is described as follows: MNK1 in vitro kinase assay (Assay 3), Z'-LYTE. The experiment is classed as biochemical. To be noted: for inhibition at 1 µM: compound concentration of 1 μM, read-out: MNK1 % INH. From the text: C. MNK1 In vitro Kinase Assay (Assay 3)
MNK1 Data can be obtained from the MNK1 Z′-LYTE® assay. The MNK1 Z′-LYTE® screening protocol and assay conditions are also described on www.invitrogen.com.
The assay is described as follows:
The Z′-LYTE® biochemical assay employs a fluorescence-based, coupled-enzyme format and is based on the differential sensitivity of phosphorylated and non-phosphorylated peptides to proteolytic cleavage. The peptide substrate is labeled with two fluorophores—one at each end—that make up a FRET pair.
In the primary reaction, the kinase transfers the gamma-phosphate of ATP to a single tyrosine, serine or threonine residue in a synthetic FRET-peptide. In the secondary reaction, a site-specific protease recognizes and cleaves non-phosphorylated FRET-peptides. Phosphorylation of FRET-peptides suppresses cleavage by the Development Reagent. Cleavage disrupts FRET between the donor (i.e., coumarin) and acceptor (i.e., fluorescein) fluorophores on the FRET-peptide, whereas uncleaved, phosphorylated FRET-peptides maintain FRET. A ratiometric method, which calculates the ratio (the Emission Ratio) of donor emission to acceptor emission after excitation of the donor fluorophore at 400 nm, is used to quantitate reaction progress, as shown in the equation below.
ASSAY SETUP: The inhibition of kinase activity of MNK1a was assessed using pre-activated GST-MNK1a. The 2×MKNK1 (MNK1) mixture is prepared in 50 mM HEPES pH 7.5, 0.01% BRIJ-35, 10 mM MgCl2, 4 mM MnCl2, 1 mM EGTA, 2 mM DTT.
The Test Compounds are screened in 1% DMSO (final) in the well.
All Peptide/Kinase Mixtures are diluted to a 2× working concentration in the MNK1 Kinase Buffer.
All ATP Solutions are diluted to a 4× working concentration in Kinase Buffer (50 mM HEPES pH 7.5, 0.01% BRIJ-35, 10 mM MgCl2, 1 mM EGTA).
Development Reagent Solution:
The Development Reagent is diluted in Development Buffer
1. 2.5 μL—4× Test Compound
2. 5 μL—2× Peptide/Kinase Mixture
5. 60-minute Kinase Reaction incubation at room temperature
6. 5 μl—Development Reagent Solution
8. 60-minute Development Reaction incubation at room temperature
9. Read on fluorescence plate reader and analyze the data
The following equations are used for each set of data points: […]
Correction for Background Fluorescence: FlSample-FlTCFl Ctl
% Phosphorylation (% Phos): 1−((Emission Ratio×F100%)−C100%)/((C0%−C100%)+[Emission Ratio×(F100%−F0%)])*100%
% Inhibition: 1−(% PhosSample/% Phos0% Inhibition Ctl)*100
Fl=Fluorescence Intensity
C100%=Average Coumarin emission signal of the 100% Phos. Control
C0%=Average Coumarin emission signal of the 0% Phos. Control
F100%=Average Fluorescein emission signal of the 100% Phos. Control
F0%=Average Fluorescein emission signal of the 0% Phos. Control
SelectScreen® Kinase Profiling Service uses XLfit from IDBS.

The structures appear in SMILES notation.

Sequence of MNK1 (Q9BUB5 other isoform, or with tags, fused parts or gaps): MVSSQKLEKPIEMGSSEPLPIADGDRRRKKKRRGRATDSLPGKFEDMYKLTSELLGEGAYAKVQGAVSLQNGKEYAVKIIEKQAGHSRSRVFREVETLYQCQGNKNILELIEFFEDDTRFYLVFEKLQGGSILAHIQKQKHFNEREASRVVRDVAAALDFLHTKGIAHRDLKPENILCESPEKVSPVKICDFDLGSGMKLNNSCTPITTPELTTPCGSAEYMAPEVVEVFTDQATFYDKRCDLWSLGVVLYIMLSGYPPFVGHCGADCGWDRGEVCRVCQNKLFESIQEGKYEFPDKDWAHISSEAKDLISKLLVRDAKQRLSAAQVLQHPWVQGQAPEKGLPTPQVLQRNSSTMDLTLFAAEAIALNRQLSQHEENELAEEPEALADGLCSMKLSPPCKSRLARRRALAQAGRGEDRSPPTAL
Sequence of MNK2a (Q9HBH9 whole entry): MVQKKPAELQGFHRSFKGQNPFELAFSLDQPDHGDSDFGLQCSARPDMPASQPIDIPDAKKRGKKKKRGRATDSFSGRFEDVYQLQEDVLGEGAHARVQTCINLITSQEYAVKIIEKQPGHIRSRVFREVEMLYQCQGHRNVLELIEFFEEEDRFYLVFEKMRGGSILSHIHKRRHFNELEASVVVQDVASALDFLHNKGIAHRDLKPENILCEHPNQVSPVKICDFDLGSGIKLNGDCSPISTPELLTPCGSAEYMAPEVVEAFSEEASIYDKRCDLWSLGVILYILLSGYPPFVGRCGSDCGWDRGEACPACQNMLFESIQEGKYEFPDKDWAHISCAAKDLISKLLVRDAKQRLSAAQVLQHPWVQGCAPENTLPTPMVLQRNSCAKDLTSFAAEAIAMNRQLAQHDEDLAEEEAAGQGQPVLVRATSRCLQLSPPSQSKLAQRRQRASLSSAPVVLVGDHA

Broadly, the IC50 is the concentration at which inhibition is half-maximal. As to `C#CCNC(=O)[C@@H](C)Oc1cc(F)ccc1Nc1ncnc2cc(N=S(C)(C)=O)cc(C)c12` [Example 4.018], the 50% inhibitory concentration (IC50) at MNK2a worked out at 4 nM. Also, the inhibition at 1 µM on MNK1 is 99%.
Regarding `Cc1cc(N=S(C)(C)=O)cc2ncnc(Nc3ccc(F)cc3O[C@H](C)C(=O)NC3CCOCC3)c12` [Example 4.019], the IC50 on MNK2a is 6 nM. In addition, the inhibition at 1 µM on MNK1 worked out at 92%.
The corresponding values for `Cc1cc(N=S(C)(C)=O)cc2ncnc(Nc3ccc(F)cc3O[C@H](C)C(=O)NCC(C)O)c12` (some centres unmarked) [Example 4.020] are 4 nM and 98%.
The corresponding values for `COCC(C)NC(=O)[C@@H](C)Oc1cc(F)ccc1Nc1ncnc2cc(N=S(C)(C)=O)cc(C)c12` (some centres unmarked) [Example 4.021] are 12 nM and 92%.
The corresponding values for `Cc1cc(N=S(C)(C)=O)cc2ncnc(Nc3ccc(F)cc3O[C@H](C)C(=O)N=S(C)(C)=O)c12` [Example 4.022] are 10 nM and 85%.
Consider `Cc1cc(N=S(C)(C)=O)cc2ncnc(Nc3ccc(F)cc3O[C@H](C)C(=O)NC3CCC3)c12` [Example 4.023], for which the concentration for half-maximal inhibition (IC50) on MNK2a turned out to be 5 nM. The inhibition at 1 µM on MNK1 stood at 99%.
For `C#CCNC(=O)[C@@H](C)Oc1cc(F)ccc1Nc1ncnc2cc(N=S3(=O)CCCC3)cc(C)c12` [Example 4.027], in that order: 1 nM and 99%.
For `Cc1cc(N=S2(=O)CCCC2)cc2ncnc(Nc3ccc(F)cc3O[C@H](C)C(=O)N(C)CCO)c12` [Example 4.028], in that order: 4 nM and 86%.
The corresponding values for `Cc1cc(N=S(C)(C)=O)cc2ncnc(Nc3ccc(F)cc3O[C@H](C)C(=O)NCCO)c12` [Example 4.029] are 3 nM and 99%.
Turning to `CCN(CC)C(=O)[C@@H](C)Oc1cc(F)ccc1Nc1ncnc2cc(N=S(C)(C)=O)cc(C)c12` [Example 4.031], at MNK2a, the 50% inhibitory concentration (IC50) was found to be 8 nM. Further, the inhibition at 1 µM at MNK1 was determined as 78%.
With `CCNC(=O)[C@@H](C)Oc1cc(F)ccc1Nc1ncnc2cc(N=S(C)(C)=O)cc(C)c12` [Example 4.034], the 50% inhibitory concentration (IC50) on MNK2a was found to be 3 nM; at MNK1, 51 nM.
`COCCNC(=O)[C@@H](C)Oc1cc(F)ccc1Nc1ncnc2cc(N=S(C)(C)=O)cc(C)c12` [Example 4.035]: the IC50 on MNK2a was found to be 66 nM. Besides, on MNK1, the inhibition at 1 µM was 87%.
`Cc1cc(N=S(C)(C)=O)cc2ncnc(Nc3ccc(F)cc3O[C@H](C)C(=O)N[C@@H]3CCC[C@@H]3O)c12` [Example 4.038]: the IC50 at MNK2a was found to be 27 nM. Moreover, the inhibition at 1 µM at MNK1 is 78%.
For the molecule `COCC(C)NC(=O)[C@@H](C)Oc1cc(F)ccc1Nc1ncnc2cc(N=S3(=O)CCCC3)cc(C)c12` (some centres unmarked) [Example 4.040], the IC50 at MNK2a worked out at 2 nM. Besides, the inhibition at 1 µM at MNK1 is 97%.
For `COCCN(C)C(=O)[C@@H](C)Oc1cc(F)ccc1Nc1ncnc2cc(N=S3(=O)CCCC3)cc(C)c12` [Example 4.041], in that order: 7 nM and 82%.
The corresponding values for `Cc1cc(N=S2(=O)CCCC2)cc2ncnc(Nc3ccc(F)cc3O[C@H](C)C(=O)NC(C)C)c12` [Example 4.042] are 1 nM and 97%.
On to `CC#CCNC(=O)[C@@H](C)Oc1cc(F)ccc1Nc1ncnc2cc(N=S3(=O)CCCC3)cc(C)c12` [Example 4.044], for which the IC50 on MNK2a was 3 nM. Moreover, the inhibition at 1 µM at MNK1 is 96%.
For `Cc1cc(N=S(C)(C)=O)cc2ncnc(Nc3ccc(F)cc3O[C@H](C)C(=O)N[C@H]3CCOC3)c12` [Example 4.045], in that order: 3 nM and 99%.
For `Cc1cc(N=S2(=O)CCCC2)cc2ncnc(Nc3ccc(F)cc3O[C@H](C)C(N)=O)c12` [Example 4.047], in that order: 5 nM and 86%.
Turning to `CCC(C)NC(=O)[C@@H](C)Oc1cc(F)ccc1Nc1ncnc2cc(N=S(C)(C)=O)cc(C)c12` (some centres unmarked) [Example 4.048], the IC50 on MNK2a worked out at 2 nM. The inhibition at 1 µM on MNK1 was found to be 98%.
The corresponding values for `CCC(C)NC(=O)[C@@H](C)Oc1cc(F)ccc1Nc1ncnc2cc(N=S3(=O)CCCC3)cc(C)c12` (some centres unmarked) [Example 4.050] are 1 nM and 100%.
For `Cc1cc(N=S2(=O)CCCC2)cc2ncnc(Nc3ccc(F)cc3O[C@H](C)C(=O)N(C)C)c12` [Example 4.051], in that order: 5 nM and 82%.
For `Cc1cc(N=S2(=O)CCCC2)cc2ncnc(Nc3ccc(F)cc3O[C@H](C)C(=O)N(C)CC(C)C)c12` [Example 4.052], in that order: 3 nM and 94%.
For `Cc1cc(N=S(C)(C)=O)cc2ncnc(Nc3ccc(F)cc3O[C@H](C)C(=O)N(C)C3CCCC3)c12` [Example 4.053], on MNK2a, the IC50 was 16 nM. Besides, the inhibition at 1 µM at MNK1 was 80%.
Consider `Cc1cc(N=S2(=O)CCCC2)cc2ncnc(Nc3ccc(F)cc3O[C@H](C)C(=O)N3CCC(=O)CC3)c12` [Example 4.054], for which the IC50 on MNK2a worked out at 9 nM. For the same molecule, the inhibition at 1 µM at MNK1 was determined as 95%.
For `COCCN(C)C(=O)[C@@H](C)Oc1cc(F)ccc1Nc1ncnc2cc(N=S(C)(C)=O)cc(C)c12` [Example 4.055], in that order: 14 nM and 62%.
For `Cc1cc(N=S(C)(C)=O)cc2ncnc(Nc3ccc(F)cc3O[C@H](C)C(=O)N3CCN(C)CC3)c12` [Example 4.056], in that order: 25 nM and 74%.
The corresponding values for `Cc1cc(N=S2(=O)CCCC2)cc2ncnc(Nc3ccc(F)cc3O[C@H](C)C(=O)N[C@H]3CCOC3)c12` [Example 4.057] are 2 nM and 102%.
Take `Cc1cc(N=S2(=O)CCCC2)cc2ncnc(Nc3ccc(F)cc3O[C@H](C)C(=O)NCC(C)(C)O)c12` [Example 4.058]: the 50% inhibitory concentration (IC50) on MNK2a came to 3 nM; against MNK1, 75 nM.
`COC1CCN(C(=O)[C@@H](C)Oc2cc(F)ccc2Nc2ncnc3cc(N=S4(=O)CCCC4)cc(C)c23)CC1` [Example 4.059]: the IC50 at MNK2a amounted to 4 nM. Moreover, the inhibition at 1 µM at MNK1 is 90%.
For `Cc1cc(N=S(C)(C)=O)cc2ncnc(Nc3ccc(F)cc3O[C@H](C)C(=O)NC(C)C)c12` [Example 4.060], in that order: 2 nM and 99%.
For `Cc1cc(N=S(C)(C)=O)cc2ncnc(Nc3ccc(F)cc3O[C@H](C)C(=O)N(C)CCO)c12` [Example 4.061], in that order: 13 nM and 70%.
The corresponding values for `Cc1cc(N=S(C)(C)=O)cc2ncnc(Nc3ccc(F)cc3O[C@H](C)C(=O)N3CCCCC3)c12` [Example 4.062] are 13 nM and 88%.
Take `Cc1cc(N=S2(=O)CCCC2)cc2ncnc(Nc3ccc(F)cc3O[C@H](C)C(=O)N(C)CCc3ccccc3)c12` [Example 4.063]: the half-maximal inhibitory concentration (IC50) at MNK2a is 10 nM. In addition, on MNK1, the inhibition at 1 µM was 56%.
The corresponding values for `Cc1cc(N=S(C)(C)=O)cc2ncnc(Nc3ccc(F)cc3O[C@H](C)C(=O)N(C)C(C)C)c12` [Example 4.064] are 8 nM and 82%.
The corresponding values for `Cc1cc(N=S(C)(C)=O)cc2ncnc(Nc3ccc(F)cc3O[C@H](C)C(=O)N[C@@H]3CCC[C@H]3O)c12` [Example 4.065] are 9 nM and 93%.
For `Cc1cc(N=S2(=O)CCCC2)cc2ncnc(Nc3ccc(F)cc3O[C@H](C)C(=O)N3CCCCC3)c12` [Example 4.067], in that order: 3 nM and 97%.
On to `CCN(C)C(=O)[C@@H](C)Oc1cc(F)ccc1Nc1ncnc2cc(N=S(C)(C)=O)cc(C)c12` [Example 4.068], for which the half-inhibitory concentration (IC50) at MNK2a was 4 nM. In addition, the inhibition at 1 µM at MNK1 is 86%.
For `Cc1cc(N=S(C)(C)=O)cc2ncnc(Nc3ccc(F)cc3O[C@H](C)C(=O)NCC(C)(C)O)c12` [Example 4.069], in that order: 6 nM and 93%.
Turning to `Cc1cc(N=S(C)(C)=O)cc2ncnc(Nc3ccc(F)cc3O[C@H](C)C(=O)NCC(F)(F)F)c12` [Example 4.071], the IC50 on MNK2a was determined as 1 nM; on MNK1, 55 nM.

The values are drawn from patent publication US9139577B2, “Sulfoximine substituted quinazolines for pharmaceutical compositions” (Boehringer Ingelheim International GmbH, priority 2013, dated 2015).
